In brackets after ≈: the same amount, converted by molar mass.
Columns and labels:
Type in all cases: functional
Settings in all cases: time 7 day
[1] = tested on: Mycobacterium tuberculosis; assay: Anti-mycobacterial activity against Isoniazid resistant Mycobacterium tuberculosis clinical isolate harbouring inhA mutant assessed as bacterial growth inhibition incubated for 7 days by microplate alamar blue assay
[2] = tested on: Mycobacterium tuberculosis; assay: Anti-mycobacterial activity against Isoniazid resistant Mycobacterium tuberculosis clinical isolate harbouring katG S315T mutant assessed as bacterial growth inhibition incubated for 7 days by microplate alamar blue assay
[3] = tested on: Mycobacterium tuberculosis; assay: Anti-mycobacterial activity against isoniazid, rifampicin, ethambutol and pyrazinamide-resistant Mycobacterium tuberculosis clinical isolate harbouring inhA/katG/rpoB H526D mutant assessed as bacterial growth inhibition incubated for 7 days by microplate alamar blue assay
[4] = tested on: Mycobacterium tuberculosis; assay: Anti-mycobacterial activity against Rifampicin resistant Mycobacterium tuberculosis clinical isolate harbouring rpoB S531L mutant assessed as bacterial growth inhibition incubated for 7 days by microplate alamar blue assay

| SMILES | MIC50 [1] [µM] | MIC90 [1] [µM] | MIC50 [2] [µM] | MIC90 [2] [µM] | MIC50 [3] [µM] | MIC90 [3] [µM] | MIC50 [4] [µM] | MIC90 [4] [µM] |
| --- | --- | --- | --- | --- | --- | --- | --- | --- |
| CC(=O)NC[C@H]1CN(c2ccc(N3CCOCC3)c(F)c2)C(=O)O1 [LINEZOLID] | 0.12 (≈ 0.0405 µg/mL) | 0.39 (≈ 0.132 µg/mL) | 0.42 (≈ 0.142 µg/mL) | 1.56 (≈ 0.526 µg/mL) | 0.81 (≈ 0.273 µg/mL) | 1.56 (≈ 0.526 µg/mL) | 0.24 (≈ 0.081 µg/mL) | 0.78 (≈ 0.263 µg/mL) |
| CO[C@H]1/C=C/O[C@@]2(C)Oc3c(C)c(O)c4c(O)c(c(/C=N/N5CCN(C)CC5)c(O)c4c3C2=O)NC(=O)/C(C)=C\C=C\[C@H](C)[C@H](O)[C@@H](C)[C@@H](O)[C@@H](C)[C@H](OC(C)=O)[C@@H]1C [RIFAMPIN] | <0.04 | <0.04 | <0.04 | <0.04 | >100 | >100 | 28.15 (≈ 23.2 µg/mL) | 50 (≈ 41.1 µg/mL) |
| Clc1ccccc1C(c1ccccc1)(c1ccccc1)n1ccnc1 [CLOTRIMAZOLE] | 0.17 (≈ 0.0586 µg/mL) | 0.78 (≈ 0.269 µg/mL) | 1.72 (≈ 0.593 µg/mL) | 3.12 (≈ 1.08 µg/mL) | 5.07 (≈ 1.75 µg/mL) | 6.25 (≈ 2.16 µg/mL) | 1.53 (≈ 0.528 µg/mL) | 3.12 (≈ 1.08 µg/mL) |
| NNC(=O)c1ccncc1 [ISONIAZID] | 0.98 (≈ 0.134 µg/mL) | 1.56 (≈ 0.214 µg/mL) | 11.06 (≈ 1.52 µg/mL) | 12.5 (≈ 1.71 µg/mL) | >100 | >100 | 23.03 (≈ 3.16 µg/mL) | 25 (≈ 3.43 µg/mL) |
| Clc1ccc(COC(Cn2ccnc2)c2ccc(Cl)cc2Cl)c(Cl)c1 (stereo not given) [MICONAZOLE] | 0.28 (≈ 0.117 µg/mL) | 0.78 (≈ 0.325 µg/mL) | 3.58 (≈ 1.49 µg/mL) | 6.25 (≈ 2.6 µg/mL) | 4.42 (≈ 1.84 µg/mL) | 6.25 (≈ 2.6 µg/mL) | 2.74 (≈ 1.14 µg/mL) | 6.25 (≈ 2.6 µg/mL) |

— ChEMBL document CHEMBL5390314, “Repurposing Azoles to Resolve Serotogenic Toxicity Associated with Linezolid to Combat Multidrug-Resistant Tuberculosis” (ACS Med Chem Lett, 2023)
